Measurements as given in article PMC3263710, “Synthesis and Inhibiting Activity of Some 4-Hydroxycoumarin Derivatives on HIV-1 Protease” (ISRN Pharmaceutics, 2011).
Non-standard residues stand in square brackets, D forms with d. Residues, ends and D or L forms follow the SMILES beside them. *: point of attachment. Sta = CC(C)C[C@H](N)[C@@H](O)CC(=O)O; Isovaleryl = CC(C)CC(=O)*

How the values were obtained:
HIV-1 protease = system: HIV-1 protease; design: method as in PMID 8185622; settings: binding activity of the experimental ligands on HIV-1 protease; cited from earlier work
HIV-1 III B = assay: Microtiter infection assay, protection of MT-4 cells from HIV cytopathic effect (MTT); type: cell-based; settings: for Infection assay MTT- % cell survival / inhibition of virus infectivity / viral replication in MT-4 cells: HIV-1-infected MT-4 cells; for Infection assay MTT- % cell survival: compound at MNC, 72–96 hours
Protocol: The evaluation of anti-HIV effect was done by an in vitro rapid and sensitive microtiter infection assay based on cytolysis quantitation by vital dye (MTT) uptake as an endpoint for infection. Additionally, the effect of inhibitors on endogenous reverse transcriptase (RT) activity of HIV-1 III B-infected MT-4 supernatants was considered as a marker for the ability of blocking HIV-1 replication. MT-4 cells were infected and incubated with each inhibitor for 72–96 hours, and then RT activity was measured in the cell supernatants according to guidelines in the HS-Lenti Kit-RT assay (Cavidi, Sweden). A study of direct effect of the newly synthesized 4-hydroxycoumarins on exogenous recombinant RT (rRT) was also performed. Further, all the compounds were tested for anti-HIV-1 PR activity. Table 3 represents the results of microtiter infection assay using MTT and inhibition of HIV-1 PR activity. The experiments were carried out in maximal nontoxic concentration (MNC) for each compound.
MT-4—a human lymphoblastoid suspension cell line, kindly provided by Gianfranco Pancino— Institute Pasteur, (Unite de Regulation des Infections Retrovirales, Paris, France) represent a classical model for experimental productive infection with HIV-1 III B strain and used as a routine target for study of effect of putative HIV inhibitors in cell culture.
As a source of HIV-1, supernatants of H9/HTLV III B line—a gift from Dr. R. Gallo (NIH, USA)— were used. Supernatants were collected and centrifuged to remove the cells, and virus stocks were prepared with known p24 antigen content (460 pg/mL, Murex HIV Antigen mAB test), RT activity (565.3 pg RT/mL, HS-Lenti RT Activity Kit, Cavidi, Sweden), and infectivity (2 × 10^6 infectious virions/mL, microtiter infection assay). MT-4 and H9/HTLV III B cells were grown in RPMI 1640 supplemented with 10% FCS (invitrogen).
(§1) The following parameters were studied: cytotoxic concentration 50—CC50, where possible (the concentration preventing death of 50% of MT-2 cells), maximal nontoxic concentration—MNC, and inhibitory concentration 50-IC50 (concentration inhibiting by 50% the viral replication). CC50 and MNC were detected by MTT uptake assay. IC50 was studied on MT-4 cells by microtiter infection assay exploring the protection of cells from the cytopathic effect of HIV measured by MTT test. Experiments under conditions of acute infection were performed in 96-well microplates with 6–8 parallels/experiment. Cell controls (MT-4 cells with medium only) and viral controls (virus infected MT-4 cells) were run with each experiment. For antivirus assays, HIV was added to each well to obtain multiplicity of infection 0.1 except the cell controls. Virus attachment was allowed for an hour at 37°C/5% CO2. The plates were incubated for 72–96 hours at 37°C/5% CO2. After that, MTT test was performed as described and absorbance of viable cells was measured colorimetrically at A540 nm. […] For antiviral assays, the mean values of experimental and control rows were compared and the percentage of cells protected (cell survival) under the appropriate concentration of the substance was plotted against the concentration of the substance to obtain IC50. The cell survival (% of cell protection) was calculated according to the following formula:
(1) % cell protection =A540X−A540 Control HIV/ A540 Cell Control−A540 Control HIV ×100, where X is the mean value of A540 of HIV-infected cells treated with appropriate concentration of the compound under study; control HIV is the mean value of A540 of HIV-infected cells without any compound added; cell control is the mean value of A540 of uninfected and untreated with inhibitor cells.

native HIV-1 protease = biological target: T1, native HIV-1 protease (Human immunodeficiency virus type 1 group M subtype B, UniProt P04585); assay: Antiprotease activity using native viral PR, spectrophotometric substrate utilization; type: biochemical; settings: compound at MNC
T1 construct: The lysis of viral particles and releasing of the active enzyme (protease) was performed using disrupting (lysis) buffer; endogenous in cells; host or cells: Virions from supernatants of chronically infected H9/HTLV IIIB cells, concentrated 50x and lysed with Triton X-100
Protocol: A method described earlier by Broglia et al., 2006 [19], for detection of recombinant protease activity was modified to use native viral protease. As a source of native HIV-1 protease, again suspension of concentrated viral stock (50x) from chronically infected H9/HTLV IIIB cell supernatants was used. The lysis of viral particles and releasing of the active enzyme (protease) was performed using disrupting (lysis) buffer containing 2.5% Triton X-100 in phosphate buffer. The concentration of the tissue culture fluid containing the virus was done by ultracentrifugation in Biofuge Stratos, Heraeus, for 1 hour, at 4°C and 35000 rev/min. The pellet was resuspended to obtain 50x concentrate in disrupting buffer.
The following reaction mixture was prepared for each experiment : 1000 μL phosphate buffer (20 mM, pH 6.0); 20 μL HIV protease substrate III ([…], 760 μM; Bachem, Switzerland) in DMSO, prepared ex tempore; 20 μL enzyme (stock HIV) taken from a solution containing 25 μL disrupting (lysis) buffer + 100 μL HIV-stock, incubated 40 min at 37°C prior to experiment.
The HIV-1 PR activity was measured using direct spectrophotometric reading of the enzyme reaction substrate utilization at 300 nm, at room temperature and 1 cm pathlength, using T80 + UV-Vis spectrophotometer (PG instruments). The initial reaction velocity (V0) was adjusted to be 0.0020–0.0030 ΔAbs/min by varying the enzyme activity (viral concentration). The tested compound and the reference inhibitor (pepstatin used here) was added to the reaction mixture prior to enzyme, in order to perform the screening for inhibitory effect. IC50 was defined as the concentration of the compound tested that decreases the velocity of the reaction by 50% of the initial velocity without tested (reference) compound.

MT-4 cells = assay: Cytotoxicity by MTT uptake assay (maximal nontoxic concentration); type: cell-based; settings: for maximal nontoxic concentration (MNC): MTT uptake assay; for maximal nontoxic concentration (MNC) / maximal nontoxic concentration (MNC), concentration tested: Table 3; for maximal nontoxic concentration (MNC), concentration tested: reference inhibitors
Protocol: The compounds under study were first dissolved in DMSO and further diluted in cell growth medium without fetal serum. All the solutions were prepared ex tempore.
as §1, with “CC50” for “The following parameters were studied: cytotoxic concentration 50—CC50, where possible (the concentration preventing death of 50% of MT-2 cells), maximal nontoxic concentration—MNC, and inhibitory concentration 50-IC50 (concentration inhibiting by 50% the viral replication). CC50”, “formula: […]” for “formula:”

3-(3,4-dimethoxybenzyl)-4-hydroxy-2H-chromen-2-one [Ligand (2)]
IC50 (HIV-1 protease): 84 µM

3-(3,4-dimethoxybenzyl)-4-hydroxy-8-methyl-2H-chromen-2-one [Ligand (3)]
IC50 (HIV-1 protease): 23 µM

3-benzyl-4-hydroxy-8-phenyl-2H-chromen-2-one [Ligand (4)]
IC50 (HIV-1 protease): 8.1 µM

4-hydroxy-3-(1-phenoxypropyl)-2H-chromen-2-one [Ligand (1)]
IC50 (HIV-1 protease): 2.7 µM

4-hydroxy-3-(3-oxo-1-phenylbutyl)-2H-chromen-2-one [Ligand (5)]
IC50 (HIV-1 protease): 18 µM

CCOC(=O)C(C(C)=O)C(c1ccc([N+](=O)[O-])cc1)c1c(O)c2ccccc2oc1=O (stereo not shown) [(8), Ethyl 2-[(4-Hydroxy-2-Oxo-2H-Chromen-3-yl)(4-Nitrophenyl)Methyl]-3-Oxobutanoate]
Infection assay MTT- % cell survival (HIV-1 III B): 0%
% Inhibition of HIV-1 protease activity (native HIV-1 protease): 0%
maximal nontoxic concentration (MNC) (MT-4 cells): (8) (0.001) μM

CCOC(=O)C(C(C)=O)C(c1ccc(O)cc1)c1c(O)c2ccccc2oc1=O (stereo not shown) [(9), Ethyl 2-[(4-Hydroxy-2-Oxo-2H-Chromen-3-yl)(4-Hydroxyphenyl)Methyl]-3-Oxobutanoate]
Infection assay MTT- % cell survival (HIV-1 III B): 0%
% Inhibition of HIV-1 protease activity (native HIV-1 protease): 0%
maximal nontoxic concentration (MNC) (MT-4 cells): (9) (0.0001) μM

CCOC(=O)C(C(C)=O)C(c1ccc(O)c(O)c1)c1c(O)c2ccccc2oc1=O (stereo not shown) [(10), Ethyl 2-[(3,4-Dihydroxyphenyl)(4-Hydroxy-2-Oxo-2H-Chromen-3-yl)Methyl]-3-Oxobuta-Noate]
inhibition of virus infectivity / viral replication in MT-4 cells (HIV-1 III B): inhibited viral replication
Infection assay MTT- % cell survival (HIV-1 III B): 30%
% Inhibition of HIV-1 protease activity (native HIV-1 protease): 16%
maximal nontoxic concentration (MNC) (MT-4 cells): (10) (0.0001) μM

CCOC(=O)C(C(C)=O)C(c1ccc(C(=O)O)cc1)c1c(O)c2ccccc2oc1=O (stereo not shown) [(11), 4-[1-(4-Hydroxy-2-Oxo-2H-Chromen-3-yl)-2-(Ethoxycarbonyl)-3-Oxobutyl]Benzoic Acid]
Infection assay MTT- % cell survival (HIV-1 III B): 0%
% Inhibition of HIV-1 protease activity (native HIV-1 protease): 0%
maximal nontoxic concentration (MNC) (MT-4 cells): (11) (0.0001) μM

CC(=O)C(C(C)=O)C(c1ccc(O)cc1)c1c(O)c2ccccc2oc1=O (stereo not shown) [(12), 3-[(4-Hydroxy-2-Oxo-2H-Chromen-3-yl)(4-Hydroxyphenyl)Methyl]Pentane-2,4-Dione]
Infection assay MTT- % cell survival (HIV-1 III B): 0%
% Inhibition of HIV-1 protease activity (native HIV-1 protease): 0%
maximal nontoxic concentration (MNC) (MT-4 cells): (12) (0.001) μM

Nc1nc(NC2CC2)c2ncn([C@H]3C=C[C@@H](CO)C3)c2n1 [Abacavir, reference compound]
Infection assay MTT- % cell survival (HIV-1 III B): 98%
maximal nontoxic concentration (MNC), concentration tested (MT-4 cells): Abacavir® (35 × 10^−6 M)

CCOC(=O)C(C(C)=O)C(c1cccc([N+](=O)[O-])c1)c1c(O)c2ccccc2oc1=O (stereo not shown) [Compound (7), Ethyl 2-[(4-Hydroxy-2-Oxo-2H-Chromen-3-yl)(3-Nitrophenyl)Methyl]-3-Oxobutanoate]
inhibition of virus infectivity / viral replication in MT-4 cells (HIV-1 III B): 76–78%
Infection assay MTT- % cell survival (HIV-1 III B): 78%
IC50 (HIV-1 III B; Human immunodeficiency virus 1, MT4, read-out: IC50 (concentration inhibiting by 50% the viral replication)): 0.01 nM
% Inhibition of HIV-1 protease activity (native HIV-1 protease): 25%
maximal nontoxic concentration (MNC) (MT-4 cells): (7) (0.001) μM
maximal nontoxic concentration (MT-4 cells; as stated in abstract): 1 mM

CC(C)CC(=O)N[C@H](C(=O)N[C@H](C(=O)N[C@@H](CC(C)C)[C@@H](O)CC(=O)N[C@@H](C)C(=O)N[C@@H](CC(C)C)[C@@H](O)CC(=O)O)C(C)C)C(C)C [Pepstatin, pepstatin, reference compound] (Isovaleryl-VV[Sta]A[Sta]-OH)
% Inhibition of HIV-1 protease activity (native HIV-1 protease): 100%
maximal nontoxic concentration (MNC), concentration tested (MT-4 cells): Pepstatin® (4.5 × 10^−5 M)
